A word on the IC50: it is the point on the concentration scale where inhibition reaches its midpoint.

Molecules are shown by their SMILES. Bounds are passed on as bounds.

This is an account of results in US20230065740A1, “CYCLIN-DEPENDENT KINASE INHIBITORS” (SPV THERAPEUTICS INC., priority 2018, published 2023).

One assay addresses T1, CDK6-CYCLIND3 (Homo sapiens, UniProt Q00534).
T1 construct: purchased Carna
Nature of the assay: Microfluidic LabChip kinase inhibition assay, CDK6-CyclinD3. It counts as biochemical. The settings on record: Table 2; 300 μM ATP, 2 nM enzyme; read-out: CDK6 IC50.

In another assay the target is CDK4-CYCLIND1 (Homo sapiens, UniProt P11802). Nature of the assay: Microfluidic LabChip kinase inhibition assay, CDK4-CyclinD1. The settings on record: CDK4 IC50 (μM), Table 2; 200 μM ATP, 1 nM enzyme.
CDK4-CYCLIND1, sequence (P11802 whole entry): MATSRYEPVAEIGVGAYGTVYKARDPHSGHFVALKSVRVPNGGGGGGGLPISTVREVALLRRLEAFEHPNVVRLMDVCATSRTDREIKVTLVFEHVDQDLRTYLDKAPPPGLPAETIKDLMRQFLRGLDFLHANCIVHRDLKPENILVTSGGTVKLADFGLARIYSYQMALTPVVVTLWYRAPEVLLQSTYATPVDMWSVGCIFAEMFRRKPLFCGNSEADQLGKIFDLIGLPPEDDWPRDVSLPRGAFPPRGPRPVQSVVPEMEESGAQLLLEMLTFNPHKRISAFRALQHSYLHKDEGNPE
CDK4-CYCLIND1, sequence (P24385 whole entry partner): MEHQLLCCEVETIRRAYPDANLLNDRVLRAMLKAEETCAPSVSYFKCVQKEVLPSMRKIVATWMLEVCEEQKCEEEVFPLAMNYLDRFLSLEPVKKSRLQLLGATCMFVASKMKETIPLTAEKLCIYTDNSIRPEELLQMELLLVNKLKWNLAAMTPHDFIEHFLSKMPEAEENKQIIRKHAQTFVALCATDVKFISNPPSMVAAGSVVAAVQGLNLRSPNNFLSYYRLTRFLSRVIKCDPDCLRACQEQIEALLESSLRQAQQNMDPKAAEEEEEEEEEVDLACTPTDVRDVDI

T1 sequence (Q00534 whole entry): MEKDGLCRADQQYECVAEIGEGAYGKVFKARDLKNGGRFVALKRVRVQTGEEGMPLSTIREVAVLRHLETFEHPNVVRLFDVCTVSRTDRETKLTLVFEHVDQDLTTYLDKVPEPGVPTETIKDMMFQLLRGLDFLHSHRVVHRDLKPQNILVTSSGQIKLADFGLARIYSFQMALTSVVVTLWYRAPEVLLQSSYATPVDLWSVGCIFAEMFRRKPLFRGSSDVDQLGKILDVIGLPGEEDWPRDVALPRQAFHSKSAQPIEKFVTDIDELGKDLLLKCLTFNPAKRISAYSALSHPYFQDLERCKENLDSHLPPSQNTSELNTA
T1 sequence (P30281 whole entry partner): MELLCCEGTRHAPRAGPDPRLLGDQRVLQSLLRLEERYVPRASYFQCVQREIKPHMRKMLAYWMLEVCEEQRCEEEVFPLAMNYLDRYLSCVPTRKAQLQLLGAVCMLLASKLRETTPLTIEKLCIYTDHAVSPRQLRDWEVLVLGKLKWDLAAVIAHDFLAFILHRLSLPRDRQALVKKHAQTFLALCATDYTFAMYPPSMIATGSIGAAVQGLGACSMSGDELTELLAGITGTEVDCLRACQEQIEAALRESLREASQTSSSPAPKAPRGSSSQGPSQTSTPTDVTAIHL

Regarding `CC(C)N1CCN(c2ccc(Nc3ncc4c(n3)N(C3CCCC3)C3(CC(=O)N(C)C3=O)C4)nc2)CC1` (stereo not drawn) [Compound C67, 7′-cyclopentyl-2′-((5-(4-isopropylpiperazin-1-yl)pyridin-2-yl)amino)-1-methyl-5′,7′-dihydrospiro[pyrrolidine-3,6′-pyrrolo[2,3-d]pyrimidine]-2,5-dione], the IC50 is above 30000 nM at CDK6-CYCLIND3 and 26.7 µM on CDK4-CYCLIND1.

On to `CN1C(=O)CC2(Cc3cnc(Nc4ccc(N5CCNCC5)cc4)nc3N2C2CCCC2)C1=O` (stereo not drawn) [Compound C68, 7′-cyclopentyl-1-methyl-2′-((4-(piperazin-1-yl)phenyl)amino)-5′,7′-dihydrospiro[pyrrolidine-3,6′-pyrrolo[2,3-d]pyrimidine]-2,5-dione], for which the IC50 came to 6680 nM on CDK6-CYCLIND3 and 2.49 µM on CDK4-CYCLIND1.

On to `CN1CCN(c2ccc(Nc3ncc4c(n3)N(C3CCCC3)C3(CC(=O)N(C)C3=O)C4)cc2)CC1` (stereo not drawn) [Compound C69, 7′-cyclopentyl-1-methyl-2′-((4-(4-methylpiperazin-1-yl)phenyl)amino)-5′,7′-dihydrospiro[pyrrolidine-3,6′-pyrrolo[2,3-d]pyrimidine]-2,5-dione], for which the IC50 on CDK6-CYCLIND3 is 2790 nM; against CDK4-CYCLIND1 it was 1.08 µM.

For `CC(C)N1CCN(c2ccc(Nc3ncc4c(n3)N(C3CCCC3)C3(CC(=O)N(C)C3=O)C4)cc2)CC1` (stereo not drawn) [Compound C70, 7′-cyclopentyl-2′-((4-(4-isopropylpiperazin-1-yl)phenyl)amino)-1-methyl-5′,7′-dihydrospiro[pyrrolidine-3,6′-pyrrolo[2,3-d]pyrimidine]-2,5-dione], the IC50 was 346 nM on CDK6-CYCLIND3 and 0.159 µM on CDK4-CYCLIND1.

Consider `CN1C(=O)CC2(Cc3cnc(Nc4ccc(N5CCNCC5)c(F)c4)nc3N2C2CCCC2)C1=O` (stereo not drawn) [Compound C71, 7′-cyclopentyl-2′-((3-fluoro-4-(piperazin-1-yl)phenyl)amino)-1-methyl-5′,7′-dihydrospiro[pyrrolidine-3,6′-pyrrolo[2,3-d]pyrimidine]-2,5-dione], for which the IC50 on CDK6-CYCLIND3 came to 11700 nM; at CDK4-CYCLIND1, 4.94 µM.

As for `CN1CCN(c2ccc(Nc3ncc4c(n3)N(C3CCCC3)C3(CC(=O)N(C)C3=O)C4)cc2F)CC1` (stereo not drawn) [Compound C72, 7′-cyclopentyl-2′-((3-fluoro-4-(4-methylpiperazin-1-yl)phenyl)amino)-1-methyl-5′,7′-dihydrospiro[pyrrolidine-3,6′-pyrrolo[2,3-d]pyrimidine]-2,5-dione], the figures for the IC50 at CDK6-CYCLIND3 and against CDK4-CYCLIND1 were 13900 nM and 2.53 µM, respectively.

Take `CC(C)N1CCN(c2ccc(Nc3ncc4c(n3)N(C3CCCC3)C3(CC(=O)N(C)C3=O)C4)cc2F)CC1` (stereo not drawn) [Compound C73, 7′-cyclopentyl-2′-((3-fluoro-4-(4-isopropylpiperazin-1-yl)phenyl)amino)-1-methyl-5′,7′-dihydrospiro[pyrrolidine-3,6′-pyrrolo[2,3-d]pyrimidine]-2,5-dione]: the IC50 on CDK6-CYCLIND3 came to 9740 nM; against CDK4-CYCLIND1, 1.94 µM.

As to `O=C1CC2(Cc3cnc(Nc4ccc(N5CCNCC5)cn4)nc3N2C2CCCC2)C(=O)N1` (stereo not drawn) [Compound C74, 7′-cyclopentyl-2′-((5-(piperazin-1-yl)pyridin-2-yl)amino)-5′,7′-dihydrospiro[pyrrolidine-3,6′-pyrrolo[2,3-d]pyrimidine]-2,5-dione], the IC50 turned out to be 84500 nM on CDK6-CYCLIND3 and 22.7 µM on CDK4-CYCLIND1.

In the case of `CN1CCN(c2ccc(Nc3ncc4c(n3)N(C3CCCC3)C3(CC(=O)NC3=O)C4)nc2)CC1` (stereo not drawn) [Compound C75, 7′-cyclopentyl-2′-((5-(4-methylpiperazin-1-yl)pyridin-2-yl)amino)-5′,7′-dihydrospiro[pyrrolidine-3,6′-pyrrolo[2,3-d]pyrimidine]-2,5-dione], the IC50 on CDK6-CYCLIND3 stood at 34.8 nM; against CDK4-CYCLIND1 it was 0.0203 µM.

Take `CC(C)N1CCN(c2ccc(Nc3ncc4c(n3)N(C3CCCC3)C3(CC(=O)NC3=O)C4)nc2)CC1` (stereo not drawn) [Compound C76, 7′-cyclopentyl-2′-((5-(4-isopropylpiperazin-1-yl)pyridin-2-yl)amino)-5′,7′-dihydrospiro[pyrrolidine-3,6′-pyrrolo[2,3-d]pyrimidine]-2,5-dione]: the half-inhibitory concentration (IC50) at CDK6-CYCLIND3 stood at 139 nM; at CDK4-CYCLIND1, 0.103 µM.

`O=C1CC2(Cc3cnc(Nc4ccc(N5CCNCC5)cc4)nc3N2C2CCCC2)C(=O)N1` (stereo not drawn) [Compound C77, 7′-cyclopentyl-2′-((4-(piperazin-1-yl)phenyl)amino)-5′,7′-dihydrospiro[pyrrolidine-3,6′-pyrrolo[2,3-d]pyrimidine]-2,5-dione]: the IC50 at CDK6-CYCLIND3 was determined as 131 nM; against CDK4-CYCLIND1, 0.0251 µM.

Take `CN1CCN(c2ccc(Nc3ncc4c(n3)N(C3CCCC3)C3(CC(=O)NC3=O)C4)cc2)CC1` (stereo not drawn) [Compound C78, 7-cyclopentyl-2′-((4(4-methylpiperazin-1-yl)phenyl)amino)-5′,7′-dihydrospiro[pyrrolidine-3,6′-pyrrolo[2,3-d]pyrimidine]-2,5-dione]: the IC50 on CDK6-CYCLIND3 was 350 nM; on CDK4-CYCLIND1, 0.0667 µM.

On to `CC(C)N1CCN(c2ccc(Nc3ncc4c(n3)N(C3CCCC3)C3(CC(=O)NC3=O)C4)cc2)CC1` (stereo not drawn) [Compound C79, 7′-cyclopentyl-2′-((4-(4-isopropylpiperazin-1-yl)phenyl)amino)-5′,7′-dihydrospiro[pyrrolidine-3,6′-pyrrolo[2,3-d]pyrimidine]-2,5-dione], for which the IC50 on CDK6-CYCLIND3 was found to be 130 nM; at CDK4-CYCLIND1 it was 0.021 µM.

As for `O=C1CC2(Cc3cnc(Nc4ccc(N5CCNCC5)c(F)c4)nc3N2C2CCCC2)C(=O)N1` (stereo not drawn) [Compound C80, 7′-cyclopentyl-2′-((3-fluoro-4-(piperazin-1-yl)phenyl)amino)-5′,7′-dihydrospiro[pyrrolidine-3,6′-pyrrolo[2,3-d]pyrimidine]-2,5-dione], the IC50 turned out to be 79.2 nM at CDK6-CYCLIND3 and 0.0134 µM against CDK4-CYCLIND1.

Consider `CN1CCN(c2ccc(Nc3ncc4c(n3)N(C3CCCC3)C3(CC(=O)NC3=O)C4)cc2F)CC1` (stereo not drawn) [Compound C81, 7′-cyclopentyl-2′-((3-fluoro-4-(4-methylpiperazin-1-yl)phenyl)amino)-5′,7′-dihydrospiro[pyrrolidine-3,6′-pyrrolo[2,3-d]pyrimidine]-2,5-dione], for which the IC50 at CDK6-CYCLIND3 was found to be 73.3 nM; against CDK4-CYCLIND1 it was 0.0162 µM.

`CC(C)N1CCN(c2ccc(Nc3ncc4c(n3)N(C3CCCC3)C3(CC(=O)NC3=O)C4)cc2F)CC1` (stereo not drawn) [Compound C82, 7′-cyclopentyl-2′-((3-fluoro-4-(4-isopropylpiperazin-1-yl)phenyl)amino)-5′,7′-dihydrospiro[pyrrolidine-3,6′-pyrrolo[2,3-d]pyrimidine]-2,5-dione]: the IC50 at CDK6-CYCLIND3 was 124 nM; against CDK4-CYCLIND1, 0.0222 µM.

`O=C1CC2(Cc3cnc(Nc4ccc(N5CCNCC5)nc4)nc3N2C2CCCC2)C(=O)N1` (stereo not drawn) [Compound C83, 7′-cyclopentyl-2′-((6-(piperazin-1-yl)pyridin-3-yl)amino)-5′,7′-dihydrospiro[pyrrolidine-3,6′-pyrrolo[2,3-d]pyrimidine]-2,5-dione]: the half-inhibitory concentration (IC50) on CDK6-CYCLIND3 turned out to be 168 nM; at CDK4-CYCLIND1, 0.0516 µM.

As to `CN1CCN(c2ccc(Nc3ncc4c(n3)N(C3CCCC3)C3(CC(=O)NC3=O)C4)cn2)CC1` (stereo not drawn) [Compound C84, 7′-cyclopentyl-2′-((6-(4-methylpiperazin-1-yl)pyridin-3-yl)amino)-5′,7′-dihydrospiro[pyrrolidine-3,6′-pyrrolo[2,3-d]pyrimidine]-2,5-dione], the IC50 amounted to 173 nM at CDK6-CYCLIND3 and 0.0399 µM against CDK4-CYCLIND1.
